Laboratory results taken from patent publication US9757405B2, “Compositions comprising rutin useful for the treatment of tumors resistant to chemotherapy” (PROBIOTICAL S.P.A., priority 2013, dated 2017).

Tests used:
[1] = test system: MDA-MB-231 (breast adenocarcinoma) cells; assay: Cell viability of chemoresistant MDA-MB-231 cells; format: cell-based, human; settings: alone or in association with cyclophosphamide
Source text: (§1) The activity of the association of rutin with synthetic chemotherapeutics (cyclophosphamide) and of the association of rutin with arctigenin, arctiin, berberine, berbamine, sanguinarine, chelerythrine (referred to with the term “extracts” in the tables), was studied on resistant cell lines of adenocarcinomas and carcinomas compared with chemosensitive tumor cell lines and with line cells.
(§2) In particular, chemoresistant human tumor cells MDA-MB-231 (breast adenocarcinoma), ECV-304 (bladder carcinoma), HuH-7 (hepatocellular carcinoma) and HTB-43 (squamous cell carcinoma of the pharynx), chemosensitive tumor cells MCF-7 (breast adenocarcinoma) and non-tumor healthy human mammal fibroblasts (HMF) have been used.

[2] = Cell viability of non-tumor healthy fibroblasts HMF; settings: human
Source text: as §1, §2

SMILES	Synergic effect in association with cyclophosphamide [1]	viability at 850 ng/ml [2]	viability at 1000 ng/ml [2]	viability at 1300 ng/ml [2]
O=c1c(O)c(-c2ccc(O)c(O)c2)oc2cc(O)cc(O)c12 [Quercetin, quercetin]	absence of synergic effects			
O=P1(N(CCCl)CCCl)NCCCO1 (stereo not shown) [Cyclophosphamide, cyclophosphamide]		54%	48%	42%
